“Also recorded” adds a separate entry of the source.
Key:
[1] = test system: MOG35-55–antigen specific T-cells; assay: In-vitro T-cell proliferative response (H3-thymidine incorporation); format: cell-based, mouse (C57Bl/6J); settings: peptide at 10μM; for inhibition of T-cell proliferation, activation by MOG35-55 presenting APCs: irradiated MOG35-55 presenting APCs, mean inhibition of proliferation; for inhibition of T-cell proliferation, activation by PMA and Ionomycin: 50ng/mL PMA with 1μM ionomycin; for inhibition of T-cell proliferation, activation by antibodies against CD3 and CD28: CD3 and CD28 antibodies 2μg/ml
[2] = Circular dichroism spectroscopy with CDNN secondary structure analysis; format: physicochemical; settings: 25μM peptide in 5mM HEPES buffer with 1% LPC; for Antiparallel β-Sheet / Parallel β-Sheet / Random-coil / α-Helix / β-turn: CD 190–260 nm, CDNN, relative amount of structure out of 100%; for secondary structure in a membrane mimetic environment: CD
Protocol: Fig 6 Detection of the immune modulatory region within the HTLV FP. (A) Sequences of shorter peptides derived from the full length HTLV FP. (B) MOG35-55–antigen specific T-cells were activated by APCs in the presence of HTLV FP derived peptides at 10μM and proliferative responses were assessed as described above. […] The data is presented as mean inhibition of proliferation. n = 12. (C) MOG35-55–antigen specific T cells were activated by either (i) irradiated MOG35-55 presenting APCs (black), (ii) antibodies against CD3 and CD28 (white), or (iii) PMA and Ionomycin (gray) in the presence of HTLV FP5-13 and HIV FP5-13 at 10μM. Proliferative responses were assessed as described above. The HTLV FP inhibits T-cell proliferation induced either through the TCR or downstream from the TCR with equal potencies. The data is presented as mean inhibition of proliferation. n = 12. […] CD spectra were measured at 25μM in 5mM HEPES buffer containing 1% lyso-phosphatidylcholine (LPC). […] (E) MOG35-55–antigen specific T-cells were activated by APCs in the presence of HTLV FP5-13 D/L enantiomers at 10μM and proliferative responses were assessed as described above. Both HTLV FP5-13 enantiomers inhibit T-cells proliferation with equal potencies. The data is presented as mean inhibition of proliferation. n = 12. One-way ANOVA was used for statistical analysis. *P<0.05;**P<0.01;***P<0.001.

[3] = test system: MOG35-55–antigen specific T-cells; assay: T-bet and Gata3 expression detected by FACS; format: cell-based, mouse (C57Bl/6J); settings: peptide at 10μM, APC activation, n = 3
Protocol: (A-B) MOG35-55–antigen specific T-cells were activated by irradiated MOG35-55 presenting APCs, in the presence of the HTLV FP at 10μM. Total RNA was isolated 24 hours following activation and mRNA expression levels were determined by qRT-PCR. The values of each gene were normalized to Rpl13a as a housekeeping control. The HTLV FP reduces TBX21 (T-bet) mRNA expression and elevates GATA3 mRNA expression. The data is presented as arbitrary units. n≥3. (C-H) MOG35-55–antigen specific T-cells were activated by irradiated MOG35-55 presenting APCs, in the presence of either HTLV or HIV FP at 10μM. Samples were fixed in 4% PFA and stained with anti T-bet-APC and anti Gata3-FITC antibodies (C-D) 24, (E-F) 48 and (G-H) 72 hours following activation. Each time point is represented as cell count vs. APC or FITC fluorescence histogram. Analysis was performed using LSR-II flow cytometer (BD) and FlowJo cell analysis software (FlowJo, LLC). The HTLV FP reduces T-bet expression and elevates Gata3 expression. n = 3. One-way ANOVA was used for statistical analysis. ns, not significant; *P<0.05;** P<0.01.
Antigen-specific T-cells were plated onto round 12-well plates (10^6 cells/ well) and activated with 5x10^5 irradiated (25 gray) APC and 5μg/ml of MOG p35-55 in the presence or absence of relevant peptides. Cells were washed with PBS, blocked (5% Donkey serum, 2% BSA and 0.1% Triton in PBS) and fixed with 4% Paraformaldehyde (PFA) 24 hour following activation. Cells were then stained with Gata3-FITC and T-bet-APC fluorochrome-labeled monoclonal mouse antibodies (purchased from Miltenyi Biotec) according to Miltenyi Biotec protocols. Samples were then collected using LSR-II flow cytometer and analyzed with FlowJo cell analysis software.

MGAGVAGGI [HTLV FP14-22, segment 14-22 of the HTLV FP]
inhibition of T-cell proliferation, activation by MOG35-55 presenting APCs ([1]; n = 12): higher potency than HTLV FP9-22 and HTLV FP14-22 | Antiparallel β-Sheet [2]: 27.7% | Parallel β-Sheet [2]: 11.7% | Random-coil [2]: 32.5% | α-Helix [2]: 11.2% | β-turn [2]: 17.1% | secondary structure in a membrane mimetic environment [2]: found to be random coils

GALFLGFLG [HIV FP5-13, reference compound]
inhibition of T-cell proliferation, activation by PMA and Ionomycin ([1]; n = 12): significantly diminished when T-cells were activated using CD3 and CD28 antibodies or PMA and Ionomycin | inhibition of T-cell proliferation, activation by antibodies against CD3 and CD28 ([1]; n = 12): significantly diminished when T-cells were activated using CD3 and CD28 antibodies or PMA and Ionomycin

AVWLVSALA [HTLV FP5-13, segment 5-13 of the HTLV FP]
inhibition of T-cell proliferation, activation by PMA and Ionomycin ([1]; n = 12): inhibited all three levels of activation | inhibition of T-cell proliferation, activation by antibodies against CD3 and CD28 ([1]; n = 12): inhibited all three levels of activation | inhibition of T-cell proliferation, activation by MOG35-55 presenting APCs ([1]; n = 12, 10 µM): inhibited all three levels of activation; also recorded: inhibit T-cell proliferation with higher potency than HTLV FP9-22 and HTLV FP14-22; also recorded: inhibited T-cell proliferation with the same potency | Antiparallel β-Sheet [2]: 6.7% | Parallel β-Sheet [2]: 5.2% | Random-coil [2]: 17.3% | α-Helix [2]: 54% | β-turn [2]: 16.8% | secondary structure in a membrane mimetic environment [2]: exhibited an α-helical structure

VSALAMGAGVAGGI [HTLV FP9-22, segment 9-22 of the HTLV FP]
inhibition of T-cell proliferation, activation by MOG35-55 presenting APCs ([1]; n = 12): higher potency than HTLV FP9-22 and HTLV FP14-22 | Antiparallel β-Sheet [2]: 30.4% | Parallel β-Sheet [2]: 11.7% | Random-coil [2]: 32.6% | α-Helix [2]: 8.5% | β-turn [2]: 16.8% | secondary structure in a membrane mimetic environment [2]: found to be random coils

AVGMVIFLLVLAIMAMTASVTAAATLVKQHATA [JDV FP, Jembrana disease virus fusion peptide, Tabanan/87 isolate]
inhibition of T-cell proliferation, activation by MOG35-55 presenting APCs ([1]; n = 12): showed no inhibitory activity

VAALTLGLALSVGLTGINVAVSALSHQRLTSLI [BLV FP, bovine leukemia virus fusion peptide, Japanese isolate of BLV-1]
inhibition of T-cell proliferation, activation by MOG35-55 presenting APCs ([1]; n = 12): significantly stronger than the BLV FP

AVGIGALFLGFLGAAGSTMGARSMTLTVQARQL [HIV FP, HIV-1 gp41 fusion peptide, HXB2 isolate, reference compound]
inhibition of T-cell proliferation, activation by PMA and Ionomycin ([1]; n = 12): decreased significantly when activation was downstream of TCRα and β | inhibition of T-cell proliferation, activation by antibodies against CD3 and CD28 ([1]; n = 12): decreased significantly when activation was downstream of TCRα and β | inhibition of T-cell proliferation, activation by MOG35-55 presenting APCs ([1]; n = 12): inhibits T-cell proliferation with the same potency as the HIV FP | Gata3 expression (protein), 24 hours ([3]; 24 hours following activation): had no effect on Gata3 expression | T-bet expression (protein), 24 hours ([3]; 24 hours following activation): had no effect on T-bet expression | Gata3 expression (protein), 48 hours ([3]; 48 hours following activation): had no effect on Gata3 expression | T-bet expression (protein), 48 hours ([3]; 48 hours following activation): had no effect on T-bet expression | Gata3 expression (protein), 72 hours ([3]; 72 hours following activation): had no effect on Gata3 expression
